In US20070065805A1, “Cell migration assay” (GE Healthcare Bio-Sciences Corp., priority 2005, published 2007):
“Also recorded” adds a separate entry of the source.

Assays:
neutrophil TEM = assay: Neutrophil transendothelial migration (TEM) assay, 96-well collagen gel/HUVEC monolayer; assay type: cell-based, human; conditions: for Inhibition of neutrophil TEM: neutrophil pre-treated with inhibitor (1, 10-phenathronoline 12-1000 μM) for 0.5 hour, inhibitor present throughout the TEM assay, migrated cells counted at Z: 60 μm (FIG. 10)
Experimental: (§1) A 96-well plate (ViewPlate™, PerkinElmer Life and Analytical Sciences) was set on ice and 40 μl of gel (2.5 mg/ml) was dispensed into each well using stepper repeat pipette (500 or 1000 tip). The plate was spun at 1,500 rpm for 2 min at 4° C. The gel was solidified at 37° C. in a CO2-free incubator to establish a thick layer (200 μm) of collagen gel onto a well of 96-well plate. The following TEM assays were performed using collagen gel prepared in this manner.
The layer of collagen gel in each well was coated with 200 μl of 1 μg/ml human fibronectin (BD Biosciences) in serum-free EGM-2 medium for 1 hour at room temperature. After removal of the fibronectin containing-medium, HUVEC cells (CAMBREX) were seeded onto the gel and cultured in the EGM-2 medium for 3 days, at 37° C., and at a concentration of 40,000 cells/well. The cells were chosen from early passage (3rd to 4th), 70-80% confluent HUVEC cell cultures. The day before the assay, the HUVEC culture medium was replaced with either fresh EGM-2 medium alone, or the fresh EGM-2 medium containing 10 ng/ml IL-1 β (or TNF-α, or other chemoattractants). The mixture was incubated overnight to stimulate TEM.
Neutrophil or peripheral blood mononuclear cells (PBMC) were freshly isolated from blood Buffy coat. Briefly, RBC were removed using dextran sedimentation. Then PBMC were isolated by Ficoll-Hypaque centrifugation. Neutrophils were purified by hypotonic lysis of remaining RBC in the pellet of Ficoll-Hypaque centrifugation. The cells were labelled with CellTracker™ Green, by incubation in 0.5 to 1 μm dye in RPMI for 45 min at 37° C. The dye containing RPMI was removed and the cells washed once with serum-free RPMI medium. The cells were re-suspended in RPMI containing 0.2% HAS (assay medium) at 2.5×10^6 cells/ml.
On the assay day, the culture medium for the HUVEC cell culture was removed and the HUVEC monolayer washed 2 times with PBS and once with assay medium (0.2% of HAS in RPMI). 500,000 (200 μl) neutrophil or PBMC, which were CellTracker™ Green labelled, were placed on top of the HUVEC monolayer in each well. The assay was incubated further at 37° C. The length of time for the incubation is primary cell type dependent. For neutrophil, incubation time is within 2 hours and for PBMC, from 6 to 10 hours may be required.
(§2) After the required incubation time, images of neutrophil/PBMC cells which had migrated below the HUVEC layer were acquired. Often, it is sufficient to acquire images at a single Z position and quantify the number of migrated cells in the gel at targeted Z position. As an example, images at the 120 μm Z plane were quantified using the Z-slicing feature of IN Cell Analyzer 3000 (GE Healthcare). Images were analysed using the Object Intensity analysis module. The experiments were repeated multiple times, such that each data point—in the Figures—represents mean plus/minus standard deviation of 6 replicate wells, one Z plane of image/well.
Prior to the TEM assay, neutrophil were pre-treated with 1, 10-phenathronoline, a MMP-9 inhibitor (12-1000 μM) for 0.5 hour. The inhibitor was continuously present throughout the TEM assay. […] Each data point in FIG. 10 represents mean plus/minus SD of 6 replicate wells, one image/well at Z: 60 μm.

PBMC TEM = assay: PBMC transendothelial migration (TEM) assay, 96-well collagen gel/HUVEC monolayer; assay type: cell-based, human; conditions: HUVEC incubated overnight with 10 ng/ml IL-1 β
Experimental: as §1
The layer of collagen gel in each well was coated with 200 μl of 1 μg/ml human fibronectin (BD Biosciences) in serum-free EGM-2 medium for 1 hour at room temperature. After removal of the fibronectin containing-medium, HUVEC cells (CAMBREX) were seeded onto the gel and cultured in the EGM-2 medium for 3 days, at 37° C., and at a concentration of 40,000 cells/well. The cells were chosen from early passage (3rd to 4th), 70-80% confluent HUVEC cell cultures. […]
as §2, with “The experiments were repeated multiple times, such that each data point—in the Figures—represents mean plus/minus standard deviation of 6 replicate wells, one Z plane of image/well.” left out

c1cnc2c(c1)ccc1cccnc12 [1, 10-phenathronoline, reference compound]
Inhibition of neutrophil TEM (neutrophil TEM): inhibits neutrophil TEM; also recorded: Inhibition of neutrophil TEM

Interleukin-8 [IL-8]
Effect of IL-8 soaking on neutrophil TEM (neutrophil TEM; collagen gel pre-soaked with culture medium containing IL-8 at 200 ng/ml for 4 hours): increase of neutrophil TEM; also recorded: generates a TEM effect similar to that of IL-1 β activation of HUVEC

Interleukin-1-beta [IL-1β]
Stimulation of neutrophil TEM (neutrophil TEM; HUVEC incubated overnight with 10 ng/ml IL-1 β): potentiate transendothelial migration of both cell types
Time for neutrophil TEM to reach a significant signal to noise ratio (IL-1β stimulated vs. non-stimulated) (neutrophil TEM; migrated cells quantified at Z: 120 μm, FIG. 7): 0.5 to 2 h
Stimulation of PBMC TEM (PBMC TEM): potentiate transendothelial migration of both cell types

C[C@H]1c2cccc(O)c2C(O)=C2C(=O)[C@]3(O)C(O)=C(C(N)=O)C(=O)[C@@H](N(C)C)[C@@H]3[C@@H](O)[C@@H]21 [doxycyclin, reference compound]
Inhibition of neutrophil TEM (neutrophil TEM): showed to inhibit TEM
